According to patent US7432256B2, “Substitued imidazo [1,5-A][1,2,4]triazolo[1,5-D][1,4]benzodiazepine derivatives” (Hoffman-La Roche Inc., priority 2004, dated 2008):
Structures can show the parent of a compound that is named as a salt. Where two headings read alike, the source gives them in different places.

Assays:
[1] = biological target: T1, GABA A receptor a1b3g2 (hα1) (Homo sapiens, UniProt P14867+P18507); test: [3H]flumazenil competition binding, GABA A a1b3g2 receptors in HEK293 cells
T1 construct: expressed in transfected cells; host or cells: HEK293 (transient transfection), membranes
Experimental: (§1) Membrane Preparation and Binding Assay
(§2) The affinity of compounds at GABA A receptor subtypes was measured by competition for [3H]flumazenil (85 Ci/mmol; Roche) binding to HEK293 cells expressing rat (stably transfected) or human (transiently transfected) receptors of composition a1b3g2, a2b3g2, a3b3g2 and a5b3g2.
(§3) Cell pellets were suspended in Krebs-tris buffer (4.8 mM KCl, 1.2 mM CaCl2, 1.2 mM MgCl2, 120 mM NaCl, 15 mM Tris; pH 7.5; binding assay buffer), homogenized by polytron for ca. 20 sec on ice and centrifuged for 60 min at 4° C. (50000 g; Sorvall, rotor: SM24=20000 rpm). The cell pellets were resuspended in Krebs-tris buffer and homogenized by polytron for ca. 15 sec on ice. Protein was measured (Bradford method, Bio-Rad) and aliquots of 1 mL were prepared and stored at −80° C.
(§4) Assays were incubated to equilibrium for 1 hour at 4° C. and harvested onto GF/C uni-filters (Packard) by filtration using a Packard harvester and washing with ice-cold wash buffer (50 mM Tris; pH 7.5). After drying, filter-retained radioactivity was detected by liquid scintillation counting. Ki values were calculated using Excel-Fit (Microsoft) and are the means of two determinations.
(§5) The major important difference is change from SF9 to HEK293 cells (which are human transiently transfected).

[2] = biological target: T2, GABA A receptor a5b3g2 (hα5) (Homo sapiens, UniProt P18507+P31644); test: [3H]flumazenil competition binding, GABA A a5b3g2 receptors in HEK293 cells
T2 construct: expressed in transfected cells; host or cells: HEK293 (transient transfection), membranes
Experimental: as §1, §2, §3, §4, §5

[3] = biological target: T3, GABA A receptor a2b3g2 (hα2) (Homo sapiens, UniProt P18507+P47869); test: [3H]flumazenil competition binding, GABA A a2b3g2 receptors in HEK293 cells
T3 construct: expressed in transfected cells; host or cells: HEK293 (transient transfection), membranes
Experimental: as §1, §2, §3
(§6) Radioligand binding assays were carried out in a volume of […] (96-well plates) which contained […] of cell memebranes, [3H]flumazenil at a concentration of 1 nM for a1, a2, a3 subunits and 0.5 nM for a5 subunits and the test compound in the range of 10-10-3×10^-6 M. Nonspecific binding was defined by 10^-5 M diazepam and typically represented less than 5% of the total binding. Assays were incubated to equilibrium for 1 hour at 4° C. and harvested onto GF/C uni-filters (Packard) by filtration using a Packard harvester and washing with ice-cold wash buffer (50 mM Tris; pH 7.5). After drying, filter-retained radioactivity was detected by liquid scintillation counting. Ki values were calculated using Excel-Fit (Microsoft) and are the means of two determinations.
as §5

[4] = biological target: T4, GABA A receptor a3b3g2 (hα3) (Homo sapiens, UniProt P18507+P34903); test: [3H]flumazenil competition binding, GABA A a3b3g2 receptors in HEK293 cells
T4 construct: expressed in transfected cells; host or cells: HEK293 (transient transfection), membranes
Experimental: as §1, §2, §3, §6, §5

[5] = [3H]flumazenil 1 nM, HEK293 membranes, human transiently transfected, mean of two determinations, read-out: Ki[nM] hα1
[6] = [3H]flumazenil 0.5 nM, HEK293 membranes, human transiently transfected, mean of two determinations, read-out: Ki[nM] hα5
[7] = [3H]flumazenil 1 nM, HEK293 membranes, human transiently transfected, mean of two determinations, read-out: Ki[nM] hα2
[8] = [3H]flumazenil 1 nM, HEK293 membranes, human transiently transfected, mean of two determinations, read-out: Ki[nM] hα3

Row | Compound | Ki [1, 5] | Ki [2, 6] | Ki [3] | Ki [1] | Ki [4] | Ki [3, 7] | Ki [4, 8] | Ki [2]
1 | 3-Fluoro-10-(3-methoxy-phenylethynyl)-9H-imidazo[1,5-a][1,2,4]triazolo[1,5-d][1,4]benzodiazepine [Example 34] | 14.1 nM | 1.1 nM |  |  |  |  |  | 
2 | Cc1ncn2c1Cn1ncnc1-c1ccccc1-2 [Example 1, 10-Methyl-9H-imidazo[1,5-a][1,2,4]triazolo[1,5-d][1,4]benzodiazepine] |  | 2.6 nM | 15.5 nM | 41.6 nM | 10.1 nM |  |  | 
3 | Cc1ncn2c1Cn1ncnc1-c1cc(F)ccc1-2 [Example 2, 3-Fluoro-10-methyl-9H-imidazo[1,5-a][1,2,4]triazolo[1,5-d][1,4]benzodiazepine] |  | 3 nM | 9.1 nM | 18.2 nM | 10.8 nM |  |  | 
4 | Cc1ncn2c1Cn1ncnc1-c1cc(Cl)ccc1-2 [Example 3, 3-Chloro-10-methyl-9H-imidazo[1,5-a][1,2,4]triazolo[1,5-d][1,4]benzodiazepine] |  |  |  | 18.5 nM |  | 219 nM | 265 nM | 3 nM
5 | CCc1ncn2c1Cn1ncnc1-c1cc(F)ccc1-2 [Example 9, 10-Ethyl-3-fluoro-9H-imidazo[1,5-a][1,2,4]triazolo[1,5-d][1,4]benzodiazepine] |  | 0.5 nM | 1.9 nM | 7.9 nM | 1.3 nM |  |  | 
6 | CCc1ncn2c1Cn1ncnc1-c1cc(Cl)ccc1-2 [Example 10, 3-Chloro-10-ethyl-9H-imidazo[1,5-a][1,2,4]triazolo[1,5-d][1,4]benzodiazepine] |  | 2.1 nM | 9.6 nM | 15.4 nM | 7 nM |  |  | 
7 | CCc1ncn2c1Cn1ncnc1-c1cc(OC)ccc1-2 [Example 11, 10-Ethyl-3-methoxy-9H-imidazo[1,5-a][1,2,4]triazolo[1,5-d][1,4]benzodiazepine] |  | 3.8 nM | 84.6 nM | 26.7 nM | 39.1 nM |  |  | 
8 | CCCc1ncn2c1Cn1ncnc1-c1cc(Cl)ccc1-2 [Example 12, 3-Chloro-10-propyl-9H-imidazo[1,5-a][1,2,4]triazolo[1,5-d][1,4]benzodiazepine] |  | 1.6 nM | 7.9 nM | 4.2 nM | 5.6 nM |  |  | 
9 | Clc1ccc2c(c1)-c1ncnn1Cc1c(CC3CC3)ncn1-2 [Example 14, 3-Chloro-10-cyclopropylmethyl-9H-imidazo[1,5-a][1,2,4]triazolo[1,5-d][1,4]benzodiazepine] |  | 1.7 nM | 10.2 nM | 4.9 nM | 6.1 nM |  |  | 
10 | C=Cc1ncn2c1Cn1ncnc1-c1ccccc1-2 [Example 18, 10-Vinyl-9H-imidazo[1,5-a][1,2,4]triazolo[1,5-d][1,4]benzodiazepine] |  | 0.8 nM | 5.7 nM | 12.8 nM | 3.7 nM |  |  | 
11 | C=Cc1ncn2c1Cn1ncnc1-c1cc(F)ccc1-2 [Example 19, 3-Fluoro-10-vinyl-9H-imidazo[1,5-a][1,2,4]triazolo[1,5-d][1,4]benzodiazepine] |  | 11 nM | 5.9 nM | 7.8 nM | 2.3 nM |  |  | 
12 | C=Cc1ncn2c1Cn1ncnc1-c1cc(Cl)ccc1-2 [Example 20, 3-Chloro-10-vinyl-9H-imidazo[1,5-a][1,2,4]triazolo[1,5-d][1,4]benzodiazepine] |  | 2.2 nM | 33.6 nM | 35.8 nM | 20.8 nM |  |  | 
13 | C/C=C/c1ncn2c1Cn1ncnc1-c1cc(Cl)ccc1-2 [Example 21, 3-Chloro-10-(E)-propenyl-9H-imidazo[1,5-a][1,2,4]triazolo[1,5-d][1,4]benzodiazepine] |  | 0.4 nM | 6.9 nM | 5.2 nM | 4.8 nM |  |  | 
14 | Clc1ccc2c(c1)-c1ncnn1Cc1c(/C=C/C3CC3)ncn1-2 [Example 23, 3-Chloro-10-((E)-2-cyclopropyl-vinyl)-9H-imidazo[1,5-a][1,2,4]triazolo[1,5-d][1,4]benzodiazepine] |  | 3.7 nM | 41 nM | 26.9 nM | 32.5 nM |  |  | 
15 | C#Cc1ncn2c1Cn1ncnc1-c1cc(Cl)ccc1-2 [Example 26, 3-Chloro-10-ethynyl-9H-imidazo[1,5-a][1,2,4]triazolo[1,5-d][1,4]benzodiazepine] |  | 0.5 nM | 6.4 nM | 4.6 nM | 3.5 nM |  |  | 
16 | C#Cc1ncn2c1Cn1ncnc1-c1cc(Br)ccc1-2 [Example 27, 3-Bromo-10-ethynyl-9H-imidazo[1,5-a][1,2,4]triazolo[1,5-d][1,4]benzodiazepine] |  | 0.9 nM | 19 nM | 20.3 nM | 11.9 nM |  |  | 
17 | CC(C)(O)C#Cc1ncn2c1Cn1ncnc1-c1cc(Cl)ccc1-2 [Example 28, 3-Chloro-10-(3-hydroxy-3-methyl-but-1-ynyl)-9H-imidazo[1,5-a][1,2,4]triazolo[1,5-d][1,4]benzodiazepine] |  | 3.6 nM |  | 91 nM |  |  |  | 
18 | Clc1ccc2c(c1)-c1ncnn1Cc1c(C#Cc3ccccc3)ncn1-2 [Example 30, 3-Chloro-10-phenylethynyl-9H-imidazo[1,5-a][1,2,4]triazolo[1,5-d][1,4]benzodiazepine] |  | 1.2 nM |  | 13.3 nM |  |  |  | 
19 | Fc1cccc(C#Cc2ncn3c2Cn2ncnc2-c2cc(F)ccc2-3)c1 [Example 31, 3-Fluoro-10-(3-fluoro-phenylethynyl)-9H-imidazo[1,5-a][1,2,4]triazolo[1,5-d][1,4]benzodiazepine] |  | 1.6 nM | 4.5 nM | 5.5 nM | 3.6 nM |  |  | 
20 | Fc1ccc2c(c1)-c1ncnn1Cc1c(C#Cc3cccc(C(F)(F)F)c3)ncn1-2 [Example 33, 3-Fluoro-10-(3-trifluoromethyl-phenylethynyl)-9H-imidazo[1,5-a][1,2,4]triazolo[1,5-d][1,4]benzodiazepine] |  | 1.2 nM |  | 3.4 nM |  |  |  | 
21 | CC(C)c1cccc(C#Cc2ncn3c2Cn2ncnc2-c2cc(F)ccc2-3)c1 [Example 36, 3-Fluoro-10-(3-isopropyl-phenylethynyl)-9H-imidazo[1,5-a][1,2,4]triazolo[1,5-d][1,4]benzodiazepine] |  | 1.5 nM |  | 4 nM |  |  |  | 
22 | FC(F)=Cc1ncn2c1Cn1ncnc1-c1ccccc1-2 [Example 40, 10-(2,2-Difluoro-vinyl)-9H-imidazo[1,5-a][1,2,4]triazolo[1,5-d][1,4]benzodiazepine] |  | 0.5 nM | 3.7 nM | 8.5 nM | 2.3 nM |  |  | 
23 | FC(F)Cc1ncn2c1Cn1ncnc1-c1ccccc1-2 [Example 41, 10-(2,2-Difluoro-ethyl)-9H-imidazo[1,5-a][1,2,4]triazolo[1,5-d][1,4]benzodiazepine] |  | 1 nM | 14.4 nM | 13.5 nM | 7 nM |  |  | 
24 | CCCc1ncn2c1Cn1ncnc1-c1cc(Br)ccc1-2 [Example 42, 3-Bromo-10-propyl-9H-imidazo[1,5-a][1,2,4]triazolo[1,5-d][1,4]benzodiazepine] |  | 1.4 nM |  | 10.6 nM |  |  |  | 
25 | Cc1ncn2c1Cn1ncnc1-c1cc(I)ccc1-2 [Example 53, 3-Iodo-10-methyl-9H-imidazo[1,5-a][1,2,4]triazolo[1,5-d][1,4]benzodiazepine hydrochloride (1:1)] | 184 nM |  |  |  |  | 261 nM | 126 nM | 4.3 nM
26 | Cc1ncn2c1Cn1ncnc1-c1c(F)cccc1-2 [Example 57, 4-Fluoro-10-methyl-9H-imidazo[1,5-a][1,2,4]triazolo[1,5-d][1,4]benzodiazepine] |  | 1 nM | 12.8 nM | 4.7 nM | 6.3 nM |  |  | 
